Counter-ions that a name gives are not always drawn.
These molecules were tested against T1, EGFR T790M/L858R/C797S (Homo sapiens, UniProt P00533, C797S/L858R/T790M) (assay: EGFR Degradation Assay (Cellular), FRET quantification of total EGFR). Conditions: BaF3 EGFR mutant cell line (EGFR T790M/L858R/C797S); 4-hour incubation; total EGFR FRET kit; top concentration 1 μM, 11 points; read-out: IC50 [nM] mutant EGFR degradation.
T1 construct: expressed in transfected cells; host or cells: BaF3 (murine pro-B) cells stably transduced with pCDH lentiviral vector, PGK promoter
Assay type: cell-based
Protocol: EGFR Degradation Assay (Cellular)
The BaF3 parental line was purchased from DSMZ and grown in RPMI media supplemented with 10% FBS and 10 ng/mL interleukin 3 (IL-3) (Thermo Fisher Scientific). EGFR mutants ([…]) were cloned into the pCDH lentiviral vector (SystemBio) under the control of a PGK promoter and confirmed by DNA sequencing. The resulting gene expression vector for each mutant was mixed with packaging vectors and cotransfected into 2×10E6 HEK293T cells (ATCC) in 10 mL of DMEM media to generate lentiviral particles according to the manufacturers protocol (Origene).
Three days post-transfection, the viral supernatant was harvested and filtered. In one well of a 12-well plate, 0.5 mL of viral supernatant was added to 2E6 Ba/F3 cells contained in 1.5 mL of RPMI media including 10% FBS, 10 ng/mL IL-3, and 5 μg/mL polybrene (Invitrogen). The plate was centrifuged at 2,000 rpm for 1 hour at room temperature and infected cells were kept in a tissue culture incubator overnight at 37° C. The cells were washed once in fresh BaF3 media and reseeded at 0.5E6 cells/well of a 12-well plate in media supplemented with 0.5 μg/mL puromycin. The cells were maintained in this media for 3 weeks. IL-3-independent, EGFR mutant transformed cells were routinely maintained in RPMI medium supplemented with 10% FBS.
RPMI 1640 no-phenol red medium and fetal bovine serum (FBS) were purchased from Gibco (Grand Island, N.Y., USA). EGFR total kit and EGFR phospho-Y1068 kit were purchased from Cisbio (Bedford, Mass., USA). BaF3 EGFR mutant cell lines (EGFR T790M/L858R/C797S) cell line was generated in house, according to the protocol reported above. Cell culture flasks and 384-well microplates were acquired from VWR (Radnor, Pa., USA).
EGFR degradation was determined based on quantification of FRET signal using EGFR total kit. The FRET signal detected correlates with total EGFR protein level in cells. Briefly, test compounds were added to the 384-well plate from a top concentration of 1 μM with 11 points, half log titration in quadruplicates. Then, BaF3 EGFR mutant cell lines (EGFR T790M/L858R/C797S) were added into 384-well plates at a cell density of 10000 cells per well. The plates were kept at 37° C. with 5% CO2 for 4 hours. After 4-hour incubation, 4× lysis buffer was added to the cells, and then microplate was agitated on plate shaker at 500 rpm for 30 minutes at room temperature. Next, total EGFR antibody solution was added to the cells and the cells were incubated for another 4 hours at room temperature. Finally, FRET signal was acquired on EnVision™ Multilabel Reader (PerkinElmer, Santa Clara, Calif., USA). The cells treated in the absence of the test compound were the negative control and lysis buffer with antibody solution only were the positive control.

T1 sequence (P00533 25-1210 T790M/C797S/L858R): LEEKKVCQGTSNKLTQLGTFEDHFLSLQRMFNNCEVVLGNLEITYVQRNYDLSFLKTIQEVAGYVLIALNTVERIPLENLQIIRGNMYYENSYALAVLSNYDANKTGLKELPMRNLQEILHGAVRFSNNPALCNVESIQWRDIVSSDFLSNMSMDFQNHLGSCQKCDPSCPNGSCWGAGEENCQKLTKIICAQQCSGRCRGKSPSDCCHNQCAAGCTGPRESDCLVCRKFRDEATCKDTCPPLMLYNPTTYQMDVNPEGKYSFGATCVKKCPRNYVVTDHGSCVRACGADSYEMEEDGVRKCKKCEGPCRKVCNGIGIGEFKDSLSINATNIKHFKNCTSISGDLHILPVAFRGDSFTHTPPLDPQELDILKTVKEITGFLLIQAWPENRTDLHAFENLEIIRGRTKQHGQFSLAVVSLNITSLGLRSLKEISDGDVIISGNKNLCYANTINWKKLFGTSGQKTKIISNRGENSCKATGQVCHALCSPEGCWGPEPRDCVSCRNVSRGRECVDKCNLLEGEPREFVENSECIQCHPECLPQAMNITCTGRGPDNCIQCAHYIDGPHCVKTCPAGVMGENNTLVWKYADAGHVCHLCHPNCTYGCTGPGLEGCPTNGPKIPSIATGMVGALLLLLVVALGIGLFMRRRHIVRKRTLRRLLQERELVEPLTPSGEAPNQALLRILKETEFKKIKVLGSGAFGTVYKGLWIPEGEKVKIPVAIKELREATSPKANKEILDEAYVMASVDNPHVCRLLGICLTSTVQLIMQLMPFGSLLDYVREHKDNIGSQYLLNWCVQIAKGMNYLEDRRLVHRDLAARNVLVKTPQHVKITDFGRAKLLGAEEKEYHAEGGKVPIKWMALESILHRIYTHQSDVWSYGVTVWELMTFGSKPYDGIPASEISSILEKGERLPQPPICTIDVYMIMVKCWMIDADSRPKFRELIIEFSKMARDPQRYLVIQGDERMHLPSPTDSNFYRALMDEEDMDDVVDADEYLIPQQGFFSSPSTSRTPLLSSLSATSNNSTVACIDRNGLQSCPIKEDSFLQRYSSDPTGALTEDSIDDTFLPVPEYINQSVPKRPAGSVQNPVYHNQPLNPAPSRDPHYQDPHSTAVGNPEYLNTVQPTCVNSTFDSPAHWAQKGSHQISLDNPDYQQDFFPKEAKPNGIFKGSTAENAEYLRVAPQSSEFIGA

Compared with `CO[C@@H]1CCN(c2nccc(Nc3cc4c(cn3)c(C(=O)NC3CCN(CCCCCCNc5cccc6c5C(=O)N(C5CCC(=O)NC5=O)C6=O)CC3)nn4C(C)C)n2)C[C@@H]1F` (mixture of isomers) [Example 21, N-[1-[6-[[2-[(3RS)-2,6-Dioxo-3-piperidyl]-1,3-dioxo-isoindolin-4-yl]amino]hexyl]-4-piperidyl]-6-[[2-[(3S,4R)-3-fluoro-4-methoxy-1-piperidyl]pyrimidin-4-yl]amino]-1-isopropyl-pyrazolo[4,3-c]pyridine-3-carboxamide], `CO[C@H]1CCN(c2nccc(Nc3cc4c(cn3)c(C(=O)NC3CCN(CCCCCCNc5cccc6c5C(=O)N(C5CCC(=O)NC5=O)C6=O)CC3)cn4C(C)C)n2)C[C@H]1F` (mixture of isomers) [Example 7, N-[1-[6-[[2-[(3RS)-2,6-Dioxo-3-piperidyl]-1,3-dioxo-isoindolin-4-yl]amino]hexyl]-4-piperidyl]-6-[[2-[(3R,4S)-3-fluoro-4-methoxy-1-piperidyl]pyrimidin-4-yl]amino]-1-isopropyl-pyrrolo[3,2-c]pyridine-3-carboxamide] is 35-fold higher in DC50: 2 nM for the first, 70 nM for the second.

Going from `COC1CCN(c2nccc(Nc3cc4c(cn3)c(N3CCC(C(=O)NC5CCN(CCCCCCNc6cccc7c6C(=O)N(C6CCC(=O)NC6=O)C7=O)CC5)C3)nn4C(C)C)n2)CC1` (racemic) [Example 6, (3RS)—N-[1-[6-[[2-[(3RS)-2,6-Dioxo-3-piperidyl]-1,3-dioxo-isoindolin-4-yl]amino]hexyl]-4-piperidyl]-1-[1-isopropyl-6-[[2-(4-methoxy-1-piperidyl)pyrimidin-4-yl]amino]pyrazolo[4,3-c]pyridin-3-yl]pyrrolidine-3-carboxamide] to `COC1CCN(c2nccc(Nc3cc4c(cn3)c(C(=O)NC3CCN(CCCCCCNc5cccc6c5C(=O)N(C5CCC(=O)NC5=O)C6=O)CC3)cn4C(C)C)n2)CC1` (racemic) [Example 2, N-[1-[6-[[2-[(3RS)-2,6-Dioxo-3-piperidyl]-1,3-dioxo-isoindolin-4-yl]amino]hexyl]-4-piperidyl]-1-isopropyl-6-[[2-(4-methoxy-1-piperidyl)pyrimidin-4-yl]amino]pyrrolo[3,2-c]pyridine-3-carboxamide], the DC50 rises from 46 nM to 132 nM (2.9-fold).

`CO[C@H]1CCN(c2nccc(Nc3cc4c(cn3)c(C(=O)NC3CCN(CCC5CCN(c6ccc7c(c6)C(=O)N(C6CCC(=O)NC6=O)C7=O)CC5)CC3)cn4C3CCCC3)n2)C[C@H]1F` (mixture of isomers) [Example 15, 1-Cyclopentyl-N-[1-[2-[1-[2-[(3RS)-2,6-dioxo-3-piperidyl]-1,3-dioxo-isoindolin-5-yl]-4-piperidyl]ethyl]-4-piperidyl]-6-[[2-[(3R,4S)-3-fluoro-4-methoxy-1-piperidyl]pyrimidin-4-yl]amino]pyrrolo[3,2-c]pyridine-3-carboxamide] and `CO[C@H]1CCN(c2nccc(Nc3cc4c(cn3)c(C(=O)NC3CCN(CCCOC5CCN(c6cccc7c6C(=O)N(C6CCC(=O)NC6=O)C7=O)CC5)CC3)cn4C3CCCC3)n2)C[C@H]1F` (single isomer, unassigned) [Example 18] are within 1.5-fold of each other in DC50: 49 nM for the first, 45 nM for the second.

Compared with `CO[C@H]1CCN(c2nccc(Nc3cc4c(cn3)c(C(=O)NC3CCN(CCCCCNc5cccc6c5C(=O)N(C5CCC(=O)NC5=O)C6=O)CC3)cn4C3CCCC3)n2)C[C@H]1F` (mixture of isomers) [Example 11, 1-Cyclopentyl-N-[1-[5-[[2-[(3RS)-2,6-dioxo-3-piperidyl]-1,3-dioxo-isoindolin-4-yl]amino]pentyl]-4-piperidyl]-6-[[2-[(3R,4S)-3-fluoro-4-methoxy-1-piperidyl]pyrimidin-4-yl]amino]pyrrolo[3,2-c]pyridine-3-carboxamide], `CO[C@H]1CCN(c2nccc(Nc3cc4c(cn3)c(C(=O)NC3CCN(CCCCCCNc5cccc6c5C(=O)N(C5CCC(=O)NC5=O)C6=O)CC3)cn4C3CCCC3)n2)C[C@H]1F` (mixture of isomers) [Example 10, 1-Cyclopentyl-N-[1-[6-[[2-[(3RS)-2,6-dioxo-3-piperidyl]-1,3-dioxo-isoindolin-4-yl]amino]hexyl]-4-piperidyl]-6-[[2-[(3R,4S)-3-fluoro-4-methoxy-1-piperidyl]pyrimidin-4-yl]amino]pyrrolo[3,2-c]pyridine-3-carboxamide] is 2-fold higher in DC50: 43 nM for the first, 85 nM for the second.

Going from `CO[C@H]1CCN(c2nccc(Nc3cc4c(cn3)c(C(=O)NC3CCN(CCC5CN(c6cccc7c6C(=O)N(C6CCC(=O)NC6=O)C7=O)C5)CC3)cn4C(C)C)n2)C[C@H]1F` (mixture of isomers) [Example 23, N-[1-[2-[1-[2-[(3RS)-2,6-Dioxo-3-piperidyl]-1,3-dioxo-isoindolin-4-yl]azetidin-3-yl]ethyl]-4-piperidyl]-6-[[2-[(3R,4S)-3-fluoro-4-methoxy-1-piperidyl]pyrimidin-4-yl]amino]-1-isopropyl-pyrrolo[3,2-c]pyridine-3-carboxamide] to `CO[C@H]1CCN(c2nccc(Nc3cc4c(cn3)c(C(=O)NC3CCN(CCCC5CCN(c6cccc7c6C(=O)N(C6CCC(=O)NC6=O)C7=O)CC5)CC3)cn4C(C)C)n2)C[C@H]1F` (mixture of isomers) [Example 12, N-[1-[3-[1-[2-[(3RS)-2,6-Dioxo-3-piperidyl]-1,3-dioxo-isoindolin-4-yl]-4-piperidyl]propyl]-4-piperidyl]-6-[[2-[(3R,4S)(3S,4R)-3-fluoro-4-methoxy-1-piperidyl]pyrimidin-4-yl]amino]-1-isopropyl-pyrrolo[3,2-c]pyridine-3-carboxamide trifluoroacetate], the DC50 rises from 8 nM to 69 nM (8.6-fold).
